These results are taken from US8796292B2, “Selective antibacterials for clostridium difficile infections” (GLSynthesis Inc., priority 2009, dated 2014).

What is called MIC is the lowest concentration found to suppress growth. Read a low MIC as inhibition by little substance.

Each structure is given as a SMILES string. Converted amounts (≈) assume the structure as drawn. Counter-ions that a name gives are not always drawn.

For assay [1], the system named is C. difficile. In words: agar dilution MIC assay of anaerobic bacteria. The class given is cell-based, Clostridium difficile. On the procedure:
Each compound was assayed against a panel of anaerobic bacteria in culture, consisting of Gram-positive organisms, such as Lactobacilli, Bifidobacteria, Clostridium spp., and Gram-negative bacteria, such as […] fragilis spp., according to guidelines of the Clinical and Laboratory Standards Institute (CLSI document M11-A7, CLSI, Wayne, Pa., 2007). […] One tenth mL of diluted bacteria containing 500-1000 colony-forming units (CFU) was plated and spread, and the plates incubated at 37° C. for 24-48 hours. MIC (minimum inhibitory concentration) is equivalent to the lowest concentration in μg/ml at which growth, i.e., colony formation, is not observed. […] Bacteria were assayed using a reference agar dilution method. Drug dilutions and drug-supplemented agar plates were prepared manually. The test organisms were maintained frozen at −80° C. The isolates were sub-cultured on Supplemented Brucella Agar (SBA) plates in a Bactron II anaerobic chamber and incubated for 48 hours at 35-36° C. in the Bactron II anaerobe chamber. Following inoculation, the drug-supplemented plates were incubated at 35° C. for 48 hours in the anaerobic environment (5% hydrogen, 5% carbon dioxide, 90% nitrogen) of the Bactron II. The MIC in μg/ml was read per Clinical and Laboratory Standards Institute guidelines.
A general note: In agar dilution, organisms are placed on agar that contains the substance at set levels.

Assay [2] has as its system C. diff. (ATCC43255). Description: clindamycin-induced C. diff. infection model in Syrian golden hamsters. To be noted: 50 mg/kg PO bid for 3 days, n = 6 hamsters. The assay is classed as in vivo. The text has this:
Compound 359E was given orally as a suspension in 1% carboxymethylcellulose to Syrian Golden hamsters, pretreated subcutaneously with clindamycin and infected orally with C. diff. (ATCC43255) as described in Table 5.

Where [3] appears, read: C. diff. Strain no. 18285, Table 4.
[4] abbreviates: C. diff. Strain no. 19265, Table 4.
Setting [5] is: C. diff. Strain no. 19273, Table 4.
Setting [6] is: C. diff. Strain no. 19281, Table 4.
Where [7] appears, read: C. diff. Strain no. 19291, Table 4.
The mark [8] stands for this setting: C. diff. Strain no. 19369, Table 4.
[9] abbreviates: C. diff. Strain no. 19382, Table 4.
The mark [10] stands for this setting: C. diff. Strain no. 19540, Table 4.
Where [11] appears, read: C. diff. Strain no. 19580, Table 4.
[12] abbreviates: C. diff. Strain no. 19680, Table 4.
Where [13] appears, read: C. diff. Strain no. 19681, Table 4.
[14] abbreviates: C. diff. Strain no. 19683, Table 4.
[15] abbreviates: C. diff. Strain no. 19687, Table 4.
Setting [16] is: C. diff. Strain no. 20066, Table 4.
[17] abbreviates: C. diff. Strain no. 20152, Table 4.
The mark [18] stands for this setting: C. diff. Strain no. 20307, Table 4.
Where [19] appears, read: C. diff. Strain no. 20494, Table 4.
Setting [20] is: C. diff. Strain no. 20680, Table 4.
[21] abbreviates: C. diff. Strain no. 20934, Table 4.
Where [22] appears, read: C. diff. Strain no. 21099, Table 4.

With `O=c1[nH]c(NCc2ccc(Cl)c(Cl)c2)nc2ncn(CCN3CCOCC3)c12` [Compound 362E], the MIC was found to be 4 µg/mL (≈ 9.45 µM) in assay [1] (setting [3]); 2 µg/mL (≈ 4.72 µM) in assay [1] (setting [4]); 4 µg/mL (≈ 9.45 µM) in assay [1] (setting [5]); 2 µg/mL (≈ 4.72 µM) in assay [1] (setting [6]); 2 µg/mL (≈ 4.72 µM) in assay [1] (setting [7]); 8 µg/mL (≈ 18.9 µM) in assay [1] (setting [8]). The MIC in assay [1] (setting [9]) amounted to 2 µg/mL (≈ 4.72 µM); in assay [1] (setting [10]) it was 2 µg/mL (≈ 4.72 µM); in assay [1] (setting [11]) it was 2 µg/mL (≈ 4.72 µM); in assay [1] (setting [12]), 2 µg/mL (≈ 4.72 µM); in assay [1] (setting [13]) it was 2 µg/mL (≈ 4.72 µM); in assay [1] (setting [14]) it was 4 µg/mL (≈ 9.45 µM). Moreover, the MIC stood at 4 µg/mL (≈ 9.45 µM) in assay [1] (setting [15]); 4 µg/mL (≈ 9.45 µM) in assay [1] (setting [16]); 8 µg/mL (≈ 18.9 µM) in assay [1] (setting [17]); 2 µg/mL (≈ 4.72 µM) in assay [1] (setting [18]); 2 µg/mL (≈ 4.72 µM) in assay [1] (setting [19]); 2 µg/mL (≈ 4.72 µM) in assay [1] (setting [20]). Moreover, the MIC amounted to 1 µg/mL (≈ 2.36 µM) in assay [1] (setting [21]) and 2 µg/mL (≈ 4.72 µM) in assay [1] (setting [22]). For the same molecule, in assay [1] (summary of Table 4), the “activity against C. diff. strains compared with 359E (in words)” value was “preferred activity against C. diff. strains”.
As for `O=c1[nH]c(NCc2ccc(Cl)c(Cl)c2)nc2ncn(CCCN3CCOCC3)c12` [Compound 363A], the MIC stood at 8 µg/mL (≈ 18.3 µM) in assay [1] (setting [3]); 8 µg/mL (≈ 18.3 µM) in assay [1] (setting [4]); 4 µg/mL (≈ 9.15 µM) in assay [1] (setting [5]); 8 µg/mL (≈ 18.3 µM) in assay [1] (setting [6]); 4 µg/mL (≈ 9.15 µM) in assay [1] (setting [7]); 8 µg/mL (≈ 18.3 µM) in assay [1] (setting [8]). For the same molecule, the MIC worked out at 2 µg/mL (≈ 4.57 µM) in assay [1] (setting [9]); 4 µg/mL (≈ 9.15 µM) in assay [1] (setting [10]); 2 µg/mL (≈ 4.57 µM) in assay [1] (setting [11]); 8 µg/mL (≈ 18.3 µM) in assay [1] (setting [12]); 4 µg/mL (≈ 9.15 µM) in assay [1] (setting [13]); 8 µg/mL (≈ 18.3 µM) in assay [1] (setting [14]). Also, the MIC in assay [1] (setting [15]) was determined as 8 µg/mL (≈ 18.3 µM); in assay [1] (setting [16]), 8 µg/mL (≈ 18.3 µM); in assay [1] (setting [17]), 8 µg/mL (≈ 18.3 µM); in assay [1] (setting [18]) it was 2 µg/mL (≈ 4.57 µM); in assay [1] (setting [19]) it was 8 µg/mL (≈ 18.3 µM); in assay [1] (setting [20]) it was 8 µg/mL (≈ 18.3 µM). Moreover, the results for the MIC in assay [1] (setting [21]) and in assay [1] (setting [22]) were 2 µg/mL (≈ 4.57 µM) and 8 µg/mL (≈ 18.3 µM), respectively.
As for `CN[C@H](CC(C)C)C(=O)N[C@H]1C(=O)N[C@@H](CC(N)=O)C(=O)N[C@H]2C(=O)N[C@H]3C(=O)N[C@H](C(=O)N[C@H](C(=O)O)c4cc(O)cc(O)c4-c4cc3ccc4O)[C@H](O)c3ccc(c(Cl)c3)Oc3cc2cc(c3O[C@@H]2O[C@H](CO)[C@@H](O)[C@H](O)[C@H]2O[C@H]2C[C@](C)(N)[C@H](O)[C@H](C)O2)Oc2ccc(cc2Cl)[C@H]1O` [vancomycin HCl, reference compound], in assay [2], the “% Survivors at 120 hr” value is reported as 100%, the “Survivors at 24 hr” value stood at 6, the “Survivors at 48 hr” value is recorded as 6 and the “Survivors at 66 hr” value is given as 6. In assay [2], the “Survivors at 72 hr” value is recorded as 6 and the “Survivors at 96 hr” value is 6.
